ChEMBL document CHEMBL5528030, “Discovery of Natural Ah Receptor Antagonists from Salvia miltiorrhiza Bunge and Synthesis of Analogs for Tumor Immunotherapy” (J Med Chem, 2024)

What was measured:
[1] = target: T1, Aryl hydrocarbon receptor (Mus musculus, UniProt P30561); assay: Antagonist activity at AhR receptor in mouse B16-F10 cells assessed as inhibition of kynurenine-induced receptor nuclear translocation by measuring increase in receptor level in cytoplasm at 10 to 30 uM measured after 72 hrs by Hoechst staining based immunofluorescence analysis; format: cell-based; details: b16-f10, 72 h, dose 10-30 µM
T1 sequence (P30561 whole entry): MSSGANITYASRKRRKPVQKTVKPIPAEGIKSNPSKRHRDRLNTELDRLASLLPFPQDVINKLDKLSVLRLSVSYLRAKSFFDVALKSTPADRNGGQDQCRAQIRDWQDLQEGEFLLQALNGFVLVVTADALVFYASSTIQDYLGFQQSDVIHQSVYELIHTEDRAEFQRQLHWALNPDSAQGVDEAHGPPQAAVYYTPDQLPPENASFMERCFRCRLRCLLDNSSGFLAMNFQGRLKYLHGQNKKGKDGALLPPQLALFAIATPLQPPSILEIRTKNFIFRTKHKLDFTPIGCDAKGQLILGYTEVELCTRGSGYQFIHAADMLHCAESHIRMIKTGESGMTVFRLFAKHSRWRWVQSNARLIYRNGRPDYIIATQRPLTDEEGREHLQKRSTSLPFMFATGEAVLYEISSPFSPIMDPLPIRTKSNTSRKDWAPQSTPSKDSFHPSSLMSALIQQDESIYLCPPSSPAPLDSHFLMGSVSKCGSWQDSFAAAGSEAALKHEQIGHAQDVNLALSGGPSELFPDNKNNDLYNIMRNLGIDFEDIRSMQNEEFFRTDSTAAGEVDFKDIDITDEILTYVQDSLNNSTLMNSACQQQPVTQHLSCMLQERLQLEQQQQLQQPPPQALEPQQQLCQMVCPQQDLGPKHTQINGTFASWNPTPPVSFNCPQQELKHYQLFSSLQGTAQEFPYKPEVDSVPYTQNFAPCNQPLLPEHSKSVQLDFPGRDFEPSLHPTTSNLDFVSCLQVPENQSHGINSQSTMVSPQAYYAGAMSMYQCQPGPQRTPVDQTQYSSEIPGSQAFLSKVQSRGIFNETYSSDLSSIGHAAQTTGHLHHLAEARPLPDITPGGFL

[2] = target: T1, Aryl hydrocarbon receptor; assay: Antagonist activity at AhR receptor in mouse B16-F10 cells assessed as inhibition of kynurenine-induced receptor nuclear translocation by measuring decrease in receptor level in nucleus at 10 to 30 uM measured after 72 hrs by Hoechst staining based immunofluorescence analysis; format: cell-based; details: b16-f10, 72 h, dose 10-30 µM
[3] = target: T1, Aryl hydrocarbon receptor; assay: Antagonist activity at AhR receptor in mouse B16-F10 cells assessed as inhibition of kynurenine-induced receptor nuclear translocation by measuring increase in receptor level in cytoplasm at 30 uM measured after 24 hrs by western blot analysis; format: subcellular; details: b16-f10, 24 h
[4] = target: T1, Aryl hydrocarbon receptor; assay: Antagonist activity at AhR receptor in mouse B16-F10 cells assessed as inhibition of kynurenine-induced receptor nuclear translocation by measuring decrease in receptor level in nucleus at 30 uM measured after 24 hrs by western blot analysis; format: subcellular; details: b16-f10, 24 h
[5] = target: T1, Aryl hydrocarbon receptor; assay: Antagonist activity at AhR receptor in kynurenine-stimulated mouse B16-F10 cells assessed as decrease in IL-6 gene expression at 10 to 30 uM measured after 24 hrs by RT-qPCR analysis; format: cell-based; details: b16-f10, 24 h, dose 10-30 µM
[6] = target: T1, Aryl hydrocarbon receptor; assay: Antagonist activity at AhR receptor in kynurenine-stimulated mouse B16-F10 cells assessed as decrease in AhRR gene expression at 10 to 30 uM measured after 24 hrs by RT-qPCR analysis; format: cell-based; details: b16-f10, 24 h, dose 10-30 µM
[7] = Toxicity against C57BL/6 mouse xenografted with mouse B16-F10 cells assessed as change in body weight at 0.3 to 1 mg/kg, po administered daily and measured for 15 days; format: organism-based; details: in vivo, 360 h, dose 0.3-1 mg/kg, time 15 day
[8] = target: T1, Aryl hydrocarbon receptor; assay: Antagonist activity at AhR receptor in kynurenine-stimulated mouse B16-F10 cells assessed as decrease in IDO-1 gene expression at 10 to 30 uM measured after 48 hrs by RT-qPCR analysis; format: cell-based; details: b16-f10, 48 h, dose 10-30 µM
[9] = system: B16-F10; assay: animal or person; details: Mus musculus, B16-F10, 360 h, read-out: TGI
Description: Antitumor activity against mouse B16-F10 cells xenografted in C57BL/6 mouse assessed as inhibition of tumor growth at 100 mg/kg, ip administered once a week and measured for 15 days

Row | inhibition (INH) [1] | inhibition (INH) [2] | inhibition (INH) [3] | inhibition (INH) [4] | inhibition (INH) [5] | inhibition (INH) [6] | inhibition (INH) [8] | SMILES | Activity [7] | inhibition in vivo at 100 mg/kg [9] [%]
1 | Active | Active | Active | Active | Active | Active | Active | CC(=O)OC1Oc2c(C(C)C)cc3ccc4c(C)c(C)ccc4c3c2OC1c1ccccc1 (racemic) | Non-Toxic | –
2 | – | – | – | – | – | – | – | O=P1(N(CCCl)CCCl)NCCCO1 (centres undefined) [CYCLOPHOSPHAMIDE ANHYDROUS] | – | 92.2
